Test results: patent publication US9763957B2, “Autotaxin inhibitors” (Novartis AG, priority 2013, dated 2017)

Molecular target: Recombinant human ATX (Homo sapiens (Human), UniProt Q13822)
Assay: ATX inhibition assay (choline release, Amplex Red fluorescence)
Assay type: biochemical
Conditions: ATX 10 nM, LPC 18:1 10 μM, 37° C., 20 min pre-incubation; mean of n≧2
Protocol: Reagents—LPC (oleoyl (18:1)) was purchased from Avanti Polar Lipids (Alabaster, Ala.) and solubilized in methanol to 20 mM. Amplex Red was obtained from Invitrogen Life Technologies (Paisley, UK) and dissolved in DMSO to 10 mM. Choline oxidase and horseradish peroxidase (HRP) were obtained from Sigma Aldrich (Dorset, UK) and dissolved in HBSS to 20 U/ml and 200 U/ml respectively. All reagents were stored at −20° C. in single use aliquots. All experimental measurements were performed in assay buffer made up immediately prior to use (HBSS, 0.01% BSA essentially fatty acid free).
PerkinElmer EnVision (Fluorescence Intensity/Absorbance Monochromator) or Tecan Infinite 200 PRO series plate reader was used to detect change in fluorescent intensity.
Assessing ATX inhibition—ATX activity was determined by measurement of released choline in reactions containing ATX (10 nM), choline oxidase (0.1 U/ml), HRP (100 U/ml), amplex red (50 μM) and LPC 18:1 (10 μM). Compounds of the invention were prepared as 10 point serial dilutions from 1 μM in duplicate and pre-incubated with ATX at 37° C. for 20 minutes prior to the addition of remaining reagents. The liberated choline was measured from changes in fluorescence intensity (λex 530 nm, λem 590 nm) of the product resurofin at 37° C. every 2 minutes over a 40-minute period. ATX activity was measured as a slope of the linear portion of the progress curve, typically between 14 to 24 minutes.
Data analysis—Slope data was exported to Graphpad prism (Graphpad software, San Diego, Calif.) where data was fitted to equation 1. Y=Bottom+(Top-Bottom)/(1+10^((Log IC50−X)*HillSlope)) Equation 1: […]

| SMILES | IC50 |
| --- | --- |
| Cc1nnn(Cc2cc(OC(F)(F)F)ccc2/C=C/C(=O)N2CCC(c3noc(C)n3)CC2)n1 [Example 3, (E)-1-(4-(5-Methyl-1,2,4-oxadiazol-3-yl)piperidin-1-yl)-3-(2-((5-methyl-2H-tetrazol-2-yl)methyl)-4-(trifluoromethoxy)phenyl)prop-2-en-1-one] | 12 nM |
| CNC(=O)[C@@H]1CCCCN1C(=O)/C=C/c1ccc(C(F)(F)F)cc1Cn1nnc(C)n1 [Example 6, (S,E)-N-Methyl-1-(3-(2-((5-methyl-2H-tetrazol-2-yl)methyl)-4-(trifluoromethyl)phenyl)acryloyl)piperidine-2-carboxamide] | 18 nM |
| Cc1nnn(Cc2cc(Cl)ccc2/C=C/C(=O)N2CC[C@@H](c3nnc(C)o3)C2)n1 [Example 7, (R,E)-3-(4-Chloro-2-((5-methyl-2H-tetrazol-2-yl)methyl)phenyl)-1-(3-(5-methyl-1,3,4-oxadiazol-2-yl)pyrrolidin-1-yl)prop-2-en-1-one] | 140 nM |
| Cc1cn(C2CCN(C(=O)/C=C/c3ccc(Cl)cc3Cn3nnc(C)n3)CC2)nn1 [Example 9, (E)-3-(4-Chloro-2-((5-methyl-2H-tetrazol-2-yl)methyl)phenyl)-1-(4-(4-methyl-1H-1,2,3-triazol-1-yl)piperidin-1-yl)prop-2-en-1-one] | 100 nM |
| Cc1ncn(C2CCN(C(=O)/C=C/c3ccc(Cl)cc3Cn3nnc(C)n3)CC2)n1 [Example 10, (E)-3-(4-Chloro-2-((5-methyl-2H-tetrazol-2-yl)methyl)phenyl)-1-(4-(3-methyl-1H-1,2,4-triazol-1-yl)piperidin-1-yl)prop-2-en-1-one] | 40 nM |
| Cc1nnn(Cc2cc(Cl)ccc2/C=C/C(=O)N2CCC(n3ncnc3C)CC2)n1 [Example 11, (E)-3-(4-Chloro-2-((5-methyl-2H-tetrazol-2-yl)methyl)phenyl)-1-(4-(5-methyl-1H-1,2,4-triazol-1-yl)piperidin-1-yl)prop-2-en-1-one] | 73 nM |
| Cc1nnn(Cc2cc(Cl)ccc2/C=C/C(=O)N2CCC(n3nnnc3C)CC2)n1 [Example 12, (E)-3-(4-Chloro-2-((5-methyl-2H-tetrazol-2-yl)methyl)phenyl)-1-(4-(5-methyl-1H-tetrazol-1-yl)piperidin-1-yl)prop-2-en-1-one] | 157 nM |
| Cc1nnc(Cc2cc(Cl)ccc2/C=C/C(=O)N2CCC(Cc3nnc(C)o3)CC2)o1 [Example 13, (E)-3-(4-Chloro-2-((5-methyl-1,3,4-oxadiazol-2-yl)methyl)phenyl)-1-(4-((5-methyl-1,3,4-oxadiazol-2-yl)methyl)piperidin-1-yl)prop-2-en-1-one] | 2360 nM |
| Cc1nnn(Cc2cc(Cl)ccc2/C=C/C(=O)N2CCC(O)(Cn3cc(C(=O)N(C)C)cn3)CC2)n1 [Example 15, (E)-1-((1-(3-(4-Chloro-2-((5-methyl-2H-tetrazol-2-yl)methyl)phenyl)acryloyl)-4-hydroxypiperidin-4-yl)methyl)-N,N-dimethyl-1H-pyrazole-4-carboxamide] | 62 nM |
| Cc1nnn(Cc2cc(Cl)ccc2/C=C/C(=O)N2CCC(O)(Cn3cc(C(=O)N4CCCCC4)cn3)CC2)n1 [Example 16, (E)-3-(4-Chloro-2-((5-methyl-2H-tetrazol-2-yl)methyl)phenyl)-1-(4-hydroxy-4-((4-(piperidine-1-carbonyl)-1H-pyrazol-1-yl)methyl)piperidin-1-yl)prop-2-en-1-one] | 11 nM |
| Cc1nnn(Cc2cc(Cl)ccc2/C=C/C(=O)N2CCC(c3noc(C)n3)CC2)n1 [Example 19, (E)-3-(4-Chloro-2-((5-methyl-2H-tetrazol-2-yl)methyl)phenyl)-1-(4-(5-methyl-1,2,4-oxadiazol-3-yl)piperidin-1-yl)prop-2-en-1-one] | 31 nM |
| Cc1noc(Cc2cc(Cl)ccc2/C=C/C(=O)N2CCC(Cc3nnc(C)o3)CC2)n1 [Example 21, (E)-3-(4-Chloro-2-((3-methyl-1,2,4-oxadiazol-5-yl)methyl)phenyl)-1-(4-((5-methyl-1,3,4-oxadiazol-2-yl)methyl)piperidin-1-yl)prop-2-en-1-one] | 208 nM |
| Cc1nnn(Cc2cc(Cl)ccc2/C=C/C(=O)N2CCC(n3nccn3)CC2)n1 [Example 22, (E)-1-(4-(2H-1,2,3-Triazol-2-yl)piperidin-1-yl)-3-(4-chloro-2-((5-methyl-2H-tetrazol-2-yl)methyl)phenyl)prop-2-en-1-one] | 26 nM |
| Cc1nnn(Cc2cc(Cl)ccc2/C=C/C(=O)N2CCC(c3ncc(C)o3)CC2)n1 [Example 24, (E)-3-(4-Chloro-2-((5-methyl-2H-tetrazol-2-yl)methyl)phenyl)-1-(4-(5-methyloxazol-2-yl)piperidin-1-yl)prop-2-en-1-one] | 4 nM |
| Cc1nnn(Cc2cc(Cl)ccc2/C=C/C(=O)N2CCC(CCCc3nnc(C)o3)CC2)n1 [Example 26, (E)-3-(4-Chloro-2-((5-methyl-2H-tetrazol-2-yl)methyl)phenyl)-1-(4-(3-(5-methyl-1,3,4-oxadiazol-2-yl)propyl)piperidin-1-yl)prop-2-en-1-one] | 31 nM |

Results, then the molecule that gave them:

| IC50 | SMILES |
| --- | --- |
| 5.8 nM | Cc1nnn(Cc2cc(C(F)(F)F)ccc2/C=C/C(=O)N2CCC(c3noc(C)n3)CC2)n1 [Example 4, (E)-1-(4-(5-Methyl-1,2,4-oxadiazol-3-yl)piperidin-1-yl)-3-(2-((5-methyl-2H-tetrazol-2-yl)methyl)-4-(trifluoromethyl)phenyl)prop-2-en-1-one] |
| 378 nM | Cc1nnn(Cc2cc(Cl)ccc2/C=C/C(=O)N2CCC[C@H]2c2nnc(C)o2)n1 [Example 8, (S,E)-3-(4-Chloro-2-((5-methyl-2H-tetrazol-2-yl)methyl)phenyl)-1-(2-(5-methyl-1,3,4-oxadiazol-2-yl)pyrrolidin-1-yl)prop-2-en-1-one] |
| 12 nM | Cc1nnn(Cc2cc(Cl)ccc2/C=C/C(=O)N2CCC(O)(Cn3cc(C(=O)N4CCOCC4)cn3)CC2)n1 [Example 14, (E)-3-(4-Chloro-2-((5-methyl-2H-tetrazol-2-yl)methyl)phenyl)-1-(4-hydroxy-4-((4-(morpholine-4-carbonyl)-1H-pyrazol-1-yl)methyl)piperidin-1-yl)prop-2-en-1-one] |
| 24 nM | Cc1nnn(Cc2cc(Cl)ccc2/C=C/C(=O)N2CCC(n3nnc(C)n3)CC2)n1 [Example 17, (E)-3-(4-Chloro-2-((5-methyl-2H-tetrazol-2-yl)methyl)phenyl)-1-(4-(5-methyl-2H-tetrazol-2-yl)piperidin-1-yl)prop-2-en-1-one] |
| 37 nM | Cc1nnn(Cc2cc(Cl)ccc2/C=C/C(=O)N2CCC(O)(Cn3cc(C(F)(F)F)cn3)CC2)n1 [Example 18, (E)-3-(4-Chloro-2-((5-methyl-2H-tetrazol-2-yl)methyl)phenyl)-1-(4-hydroxy-4-((4-(trifluoromethyl)-1H-pyrazol-1-yl)methyl)piperidin-1-yl)prop-2-en-1-one] |
| 163 nM | Cc1nnn(Cc2cc(Cl)ccc2/C=C/C(=O)N2CCC(CCc3nnc(C)o3)CC2)n1 [Example 20, (E)-3-(4-Chloro-2-((5-methyl-2H-tetrazol-2-yl)methyl)phenyl)-1-(4-(2-(5-methyl-1,3,4-oxadiazol-2-yl)ethyl)piperidin-1-yl)prop-2-en-1-one] |
| 8.5 nM | Cc1cnn(C2CCN(C(=O)/C=C/c3ccc(Cl)cc3Cn3nnc(C)n3)CC2)n1 [Example 25, (E)-3-(4-Chloro-2-((5-methyl-2H-tetrazol-2-yl)methyl)phenyl)-1-(4-(4-methyl-2H-1,2,3-triazol-2-yl)piperidin-1-yl)prop-2-en-1-one] |
